How the values were obtained:
[1] = target: T1, Recombinant human LOXL2 (lysyl oxidase like 2) (Homo sapiens, UniProt Q9Y4K0); experiment: LOXL2 inhibition assay (fluorometric, cadaverine/Amplex Red/HRP); format: biochemical; conditions: IC50 class; recombinant human LOXL2, cadaverine substrate; read-out: Activity Range LOXL2
T1 construct: purchased R&D systems
T1 sequence (Q9Y4K0 26-774): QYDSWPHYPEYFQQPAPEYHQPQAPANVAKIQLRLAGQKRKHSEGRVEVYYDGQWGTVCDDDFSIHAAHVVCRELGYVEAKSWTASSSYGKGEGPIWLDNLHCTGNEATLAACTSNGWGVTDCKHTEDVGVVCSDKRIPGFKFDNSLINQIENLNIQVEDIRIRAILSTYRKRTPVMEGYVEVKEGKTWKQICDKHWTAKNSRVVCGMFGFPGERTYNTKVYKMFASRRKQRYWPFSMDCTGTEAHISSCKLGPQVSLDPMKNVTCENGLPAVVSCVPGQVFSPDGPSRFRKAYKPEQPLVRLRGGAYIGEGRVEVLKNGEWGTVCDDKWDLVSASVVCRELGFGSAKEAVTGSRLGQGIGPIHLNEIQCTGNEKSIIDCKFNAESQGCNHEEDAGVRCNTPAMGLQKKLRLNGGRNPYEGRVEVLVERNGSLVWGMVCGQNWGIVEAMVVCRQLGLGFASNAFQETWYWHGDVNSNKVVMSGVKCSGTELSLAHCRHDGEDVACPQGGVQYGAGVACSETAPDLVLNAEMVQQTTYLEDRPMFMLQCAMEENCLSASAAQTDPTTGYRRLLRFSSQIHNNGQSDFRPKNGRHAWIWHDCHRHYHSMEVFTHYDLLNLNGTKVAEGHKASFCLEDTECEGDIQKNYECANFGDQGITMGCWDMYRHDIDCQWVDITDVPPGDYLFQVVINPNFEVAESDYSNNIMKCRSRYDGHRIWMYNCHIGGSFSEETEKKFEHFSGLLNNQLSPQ
Description: (§1) The ability of compounds to inhibit one or more of the lysyl oxidases LOXL2 and/or LOXL3 was determined using a fluorometric assay. This assay measures the activity of lysyl oxidases by coupling the reaction with horseradish peroxidase-catalyzed […]. The activity assay protocol uses cadaverine as substrate that releases hydrogen peroxide upon transformation by the specific LOX family enzyme present in the sample. Hydrogen peroxide is in turn detected using a red fluorescence substrate for HRP-coupled reactions (Amplex Red Enzyme Assays, Thermo Scientific Fisher). This leads to increase in fluorescence that can be easily detected at Ex/Em=540/590 nm in a fluorescence microplate reader.
Enzymes: Recombinant human LOXL2 (lysyl oxidase like 2) and recombinant human LOXL3 (lysyl oxidase like 3) were purchased from R&D systems and assays were performed in 1.2 M urea, 50 mM sodium borate buffer pH 8.0, and 10 mM CaCl.
Reaction: Final concentration in the LOXL2 and LOXL3 assays were as following and performed in a total volume of […]:
Experimental procedure: 5 μl of freshly prepared reaction buffer were delivered to reaction wells. Compounds were resuspended in 100% DMSO at 10 mM and delivered into buffer using acoustic technology (Echo550; nanoliter range). A 3× solution of LOXL2 or LOXL3 in reaction buffer was prepared (“enzyme solution”) and 5 μL of enzyme solution was added into the reaction wells. Buffer only was added to column 1 for no protein control. Reactions were incubated for 30 minutes at 37° C. A 3×mixture of cadaverine, Amplex Red, and HRP (“Substrate/Detection Mix) was prepared and subsequently 5 μL of the mixture added to each reaction well. Progress of reactions was monitored for 60 minutes at 37° C. using Clariostar plate reader (ex 530-12, ems 600-40). For all activity assays, pan-LOX inhibitor CCT365623 (Tang et al, 2017) and LOXL2/LOXL3 inhibitor PAT-1251 (PharmaKea) were included as standards.
Data analysis: Slope of the linear portion of the progress curve was calculated using Clariostar software. Typical analysis interval was between 8-30 min, but varied between experiments. The background subtracted signals (No protein wells are considered as background) were converted to % activity relative to DMSO controls. Data was analyzed using GraphPad Prism 4 with “sigmoidal dose-response (variable slope)”; 4 parameters with Hill Slope. Constraints: Bottom=Constant equal to 0. Top=Must be less than 120.

[2] = target: T2, Bovine lysyl oxidase (LOX) (Bos taurus, UniProt P33072); experiment: LOX inhibition assay (fluorometric, cadaverine/Amplex Red/HRP); format: biochemical; conditions: IC50 class; bovine tendon LOX, cadaverine substrate; read-out: Activity Range LOX
T2 construct: from tissue; host or cells: adult bovine tendon
T2 sequence (P33072 170-418): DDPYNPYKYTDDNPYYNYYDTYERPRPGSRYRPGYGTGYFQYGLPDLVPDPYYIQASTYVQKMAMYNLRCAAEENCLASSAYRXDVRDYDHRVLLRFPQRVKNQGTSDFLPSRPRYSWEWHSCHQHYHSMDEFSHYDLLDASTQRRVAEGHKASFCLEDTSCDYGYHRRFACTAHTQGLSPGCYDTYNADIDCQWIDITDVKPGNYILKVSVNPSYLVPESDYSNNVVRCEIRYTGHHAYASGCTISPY
Description: as §1, with “prototypic LOX” for “one or more of the lysyl oxidases LOXL2 and/or LOXL3”, “prototypic” for “the specific”, “LOX” for “LOX family”
Enzyme: Bovine lysyl oxidase (LOX) was extracted by adapting the methodology from [Kagan et al. 1979 and Borel et al. 2001.] from bovine tendon: Frozen adult bovine tendon was placed in room temperature water to defrost, and then membranes were removed and the remaining tissue cut into 1 cm pieces. The material was first passed through a course mesh meat grinder, and this mince was passed through a fine mesh grinder. The mince was homogenized in 10 v/w of buffer (16 mM sodium phosphate buffer pH 7.8, 400 mM NaCl) using a Waring blender. The homogenate was centrifuged at 15,000×g for 15 min at 4° C. After centrifugation, the supernatant was discarded and the pellets resuspended in 10 volumes of the same buffer. The mixture was blended again and centrifuged with the same settings. This time the pellets were blended in 3 volumes of extraction buffer (16 mM sodium phosphate buffer pH 7.8) and left to incubate at 4° C. for 2 h. After this time, the slurry was centrifuged with the same settings as described above. The supernatant was used in an ultrafiltration step to remove large proteins by size exclusion through a 30 kDalton filter (EMD Millipore). The filtrate was mixed with DEAE Sephadex (GE Healthcare), or passed over a MonoQ FPLC column. After two washes, one in 16 mM sodium phosphate buffer pH 7.8, 380 mM NaCl, and another in 16 mM sodium phosphate buffer pH 7.8, the proteins were eluted with 16 mM sodium phosphate pH 7.8, 10 μM CuSO4, and 4 M urea. Fractions containing Lox activity were collected and stored frozen at −70° C.
Reaction: Final concentration in the LOX assay was as following and performed in a total volume of […]:
Experimental procedure: 7 μl of freshly prepared reaction buffer were delivered to reaction wells. Compounds were resuspended in 100% DMSO at 10 mM and delivered into buffer using acoustic technology (Echo550; nanoliter range). A 2.85× solution of LOX protein in reaction buffer was prepared (“LOX solution”) and 7 μl of LOX solution was added into the reaction wells. Buffer only was added to column 1 for no protein control. Reactions were incubated for 30 minutes at 37° C. A 3.33× mixture of cadaverine, Amplex Red, and HRP (“Substrate/Detection Mix) was prepared and subsequently 6 μL of the mixture was added to each reaction well. Progress of reactions was monitored for 120 minutes at 37° C. using Clariostar plate reader (ex530-12, ems 600-40). For all activity assays, pan-LOX inhibitor CCT365623 (Tang et al, 2017) and LOXL2/LOXL3 inhibitor PAT-1251 (PharmaKea) were included as standards.
Data analysis: Slope of the linear portion of the progress curve was calculated using Clariostar software. Typical analysis interval was between 20-50 min, but varied between experiments. The background subtracted signals (No protein wells were considered as background) were converted to % activity relative to DMSO controls. Data was analyzed using GraphPad Prism 4 with “sigmoidal dose-response (variable slope)”; 4 parameters with Hill Slope. Constraints: Bottom=Constant equal to 0. Top=Must be less than 120.

SMILES	IC50 [1] [nM]	IC50 [2] [nM]
NCc1ccc(S(=O)(=O)N2C[C@@H](C(=O)N3CCCCC3)C[C@@H](c3ccccc3)C2)s1 (racemic) [Example 11, cis-(1-((5-(Aminomethyl)thiophen-2-yl)sulfonyl)-5-phenylpiperidin-3-yl)(piperidin-1-yl)methanone 2,2,2-trifluoroacetate]	≤ 500	≤ 500
NCc1ccc(S(=O)(=O)N2C[C@@H](C(=O)N3CCNCC3)C[C@@H](c3ccccc3)C2)s1 (racemic) [Example 15, cis-(1-((5-(Aminomethyl)thiophen-2-yl)sulfonyl)-5-phenylpiperidin-3-yl)(piperazin-1-yl)methanone 2,2,2-trifluoroacetate]	≤ 500	500 to 1000
CN1CCN(C(=O)[C@H]2C[C@@H](c3ccccc3)CN(S(=O)(=O)c3ccc(CN)s3)C2)CC1 (racemic) [Example 17, cis-(1-((5-(Aminomethyl)thiophen-2-yl)sulfonyl)-5-phenylpiperidin-3-yl)(4-methylpiperazin-1-yl)methanone 2,2,2-trifluoroacetate]	≤ 500	500 to 1000
CS(=O)(=O)[C@@H]1C[C@H](Oc2ccc(CN)cc2)CN(c2ccccc2)C1 (racemic) [Example 20, cis-(4-((-5-(Methylsulfonyl)-1-phenylpiperidin-3-yl)oxy)phenyl)methanamine2,2,2-trifluoroacetate]	1000 to 30000	1000 to 30000
CS(=O)(=O)[C@@H]1C[C@H](Oc2cccc(CN)c2)CN(c2ccccc2)C1 (racemic) [Example 21, cis-(3-((-5-(Methylsulfonyl)-1-phenylpiperidin-3-yl)oxy)phenyl)methanamine 2,2,2-trifluoroacetate]	500 to 1000	> 30000
CS(=O)(=O)N1C[C@H](Oc2ccc(CN)cc2)C[C@H](c2ccccc2)C1 (racemic) [Example 24, cis-(4-((1-(Methylsulfonyl)-5-phenylpiperidin-3-yl)oxy)phenyl)methanamine 2,2,2-trifluoroacetate]	1000 to 30000	> 30000
CS(=O)(=O)N1C[C@@H](c2ccccc2)C[C@@H](S(=O)(=O)c2cccc(CN)c2)C1 (racemic) [Example 27, cis-(3-((1-(Methylsulfonyl)-5-phenylpiperidin-3-yl)sulfonyl)phenyl)methanamine 2,2,2-trifluoroacetate]	≤ 500	1000 to 30000
NCc1cccc(S(=O)(=O)N2C[C@@H](C(=O)N3CCOCC3)C[C@@H](c3ccccc3)C2)n1 (racemic) [Example 114, cis-(1-((6-(Aminomethyl)pyrid-2-yl)sulfonyl)-5-phenylpiperidin-3-yl)(morpholino)methanone]	> 30000	

Now from value to compound:

IC50 [1] [nM]	IC50 [2] [nM]	SMILES
≤ 500	500 to 1000	CN(C)C(=O)[C@H]1C[C@@H](c2ccccc2)CN(S(=O)(=O)c2ccc(CN)s2)C1 (racemic) [Example 9, cis-1-((5-(Aminomethyl)thiophen-2-yl)sulfonyl)-N,N-dimethyl-5-phenylpiperidine-3-carboxamide 2,2,2-trifluoroacetate]
≤ 500	1000 to 30000	CS(=O)(=O)[C@H]1C[C@@H](S(=O)(=O)c2ccc(CN)cc2)CN(c2ccccc2)C1 (racemic) [Example 22, cis-(4-((5-(Methylsulfonyl)-1-phenylpiperidin-3-yl)sulfonyl)phenyl)methanamine 2,2,2-trifluoroacetate]
500 to 1000	1000 to 30000	CS(=O)(=O)N1C[C@H](Oc2cccc(CN)c2)C[C@H](c2ccccc2)C1 (racemic) [Example 25, cis-(3-((-1-(Methylsulfonyl)-5-phenylpiperidin-3-yl)oxy)phenyl)methanamine 2,2,2-trifluoroacetate]
≤ 500	1000 to 30000	CS(=O)(=O)N1C[C@@H](c2ccccc2)C[C@@H](S(=O)(=O)c2ccc(CN)cc2)C1 (racemic) [Example 26, cis-(4-((1-(Methylsulfonyl)-5-phenylpiperidin-3-yl)sulfonyl)phenyl)methanamine 2,2,2-trifluoroacetate]
≤ 500	> 30000	CS(=O)(=O)N1C[C@H](Oc2cc(CN)ccc2F)C[C@H](c2ccccc2)C1 (racemic) [Example 69, cis-(4-Fluoro-3-((-1-(methylsulfonyl)-5-phenylpiperidin-3-yl)oxy)phenyl)methanamine 2,2,2-trifluoroacetate]

Source: patent US20230310445A1, “LOX ENZYME INHIBITING METHODS AND COMPOSITIONS” (ANOVIA BIOSCIENCES, INC., priority 2020, published 2023)
